# Experimental data reported in ChEMBL document CHEMBL1124763, “Nucleoside conjugates. 11. Synthesis and antitumor activity of 1-beta-D-arabinofuranosylcytosine and cytidine conjugates of thioether lipids” (1990).
# Assays:
# Mus musculus [1] = assay: Increase of life span was determined against Ip implanted L1210 / ara-C lymphoid leukemia in mice at a dose of 300 mg/kg per day; type: functional; details: route intraperitoneal
# Mus musculus [2] = assay: Increase of life span was determined against Ip implanted L1210 / 0 lymphoid leukemia in mice at a dose of 200 mg/kg per day after treatment 1;8/7.5; type: functional; details: L1210/0, ip, route intraperitoneal
# Mus musculus [3] = assay: Range of survival days for antitumor activity against Ip implanted L1210 / ara-C lymphoid leukemia in mice at a dose of 300 mg/kg per day; range is 8-9; type: functional; details: route intraperitoneal
# Mus musculus [4] = assay: Range of survival days for antitumor activity against Ip implanted L1210 / 0 lymphoid leukemia in mice at a dose of 200 mg/kg per day after treatment 1; range is 4-8; type: functional; details: route intraperitoneal
# Mus musculus [5] = assay: Survival time treated / survival time (T/C) for antitumor activity against Ip implanted L1210 / 0 lymphoid leukemia in mice at a dose of 200 mg/kg per day after treatment 1; type: functional; details: route intraperitoneal
# Mus musculus [6] = assay: Survival time treated/survival time tested (T/C) for antitumor activity against Ip implanted L1210 / ara-C lymphoid leukemia in mice at a dose of 300 mg/kg per day;8/9; type: functional; details: route intraperitoneal
# Mus musculus [7] = assay: Increase of life span was determined against Ip implanted L1210 / 0 lymphoid leukemia in mice at a dose of 100 mg/kg per day after treatment 1; type: functional; details: L1210/0, ip, route intraperitoneal
# Mus musculus [8] = assay: Increase of life span was determined against Ip implanted L1210 / 0 lymphoid leukemia in mice at a dose of 200 mg/kg per day after treatment 1; type: functional; details: L1210/0, ip, route intraperitoneal
# Mus musculus [9] = assay: Range of survival days for antitumor activity against Ip implanted L1210 / 0 lymphoid leukemia in mice at a dose of 100 mg/kg per day after treatment 1; range is 4-11; type: functional; details: route intraperitoneal
# Mus musculus [10] = assay: Range of survival days for antitumor activity against Ip implanted L1210 / 0 lymphoid leukemia in mice at a dose of 200 mg/kg per day after treatment 1; type: functional; details: route intraperitoneal
# Mus musculus [11] = assay: Survival time treated / survival time (T/C) for antitumor activity against Ip implanted L1210 / 0 lymphoid leukemia in mice at a dose of 200 mg/kg per day after treatment 1;6/7; type: functional; details: route intraperitoneal
# Mus musculus [12] = assay: Survival time treated / survival time (T/C) for antitumor activity against Ip implanted L1210 / 0 lymphoid leukemia in mice at a dose of 100 mg/kg per day after treatment 1;9.5/7; type: functional; details: route intraperitoneal
# Mus musculus [13] = assay: Increase of life span was determined against Ip implanted L1210 / ara-C (II) lymphoid leukemia in mice at a dose of 300 mg/kg per day; type: functional; details: route intraperitoneal
# Mus musculus [14] = assay: Increase of life span was determined against Ip implanted L1210 / 0 lymphoid leukemia in mice at a dose of 300 mg/kg per day after treatment 1; type: functional; details: L1210/0, ip, route intraperitoneal
# Mus musculus [15] = assay: Range of survival days for antitumor activity against Ip implanted L1210 / ara-C (II )lymphoid leukemia in mice at a dose of 300 mg/kg per day; range is 7-8; type: functional; details: route intraperitoneal
# Mus musculus [16] = assay: Range of survival days for antitumor activity against Ip implanted L1210 / 0 lymphoid leukemia in mice at a dose of 300 mg/kg per day after treatment 1; range is 7-9; type: functional; details: route intraperitoneal
# Mus musculus [17] = assay: Survival time treated/survival time tested (T/C) for antitumor activity against Ip implanted L1210 / ara-C (II) lymphoid leukemia in mice at a dose of 300 mg/kg per day;8/9; type: functional; details: route intraperitoneal
# Mus musculus [18] = assay: Median survival time for antitumor activity against Ip implanted L1210 / 0 lymphoid leukemia in mice at a dose of 300 mg/kg per day after treatment 1;7.5-8; details: route intraperitoneal
structure (smiles),measurement,setting,value
CCCCCCCCCCCCCCCCCCSCC(COP(=O)(O)OP(=O)(O)OC[C@H]1O[C@@H](n2ccc(N)nc2=O)[C@H](O)[C@@H]1O)OC (stereo partly drawn),ILS at 300 mg/kg/day,Mus musculus [1],-11%
same,ILS at 200 mg/kg/day,Mus musculus [2],7%
same,Range of survival days,Mus musculus [3],8
same,Range of survival days,Mus musculus [4],4
same,T/C,Mus musculus [5],8
same,T/C,Mus musculus [6],8
CCCCCCCCCCCCCCCCCCSCC(COP(=O)(O)OP(=O)(O)OC[C@H]1O[C@@H](n2ccc(N)nc2=O)[C@@H](O)[C@@H]1O)OC (mixture of isomers),ILS at 100 mg/kg/day,Mus musculus [7],36%
same,ILS at 200 mg/kg/day,Mus musculus [8],-14%
same,Range of survival days,Mus musculus [9],4
same,Range of survival days,Mus musculus [10],6
same,T/C,Mus musculus [11],6
same,T/C,Mus musculus [12],9.5
CCCCCCCCCCCCCCCCCCSCC(COP(=O)(O)OP(=O)(O)OC[C@H]1O[C@@H](n2ccc(N)nc2=O)[C@H](O)[C@@H]1O)OC(=O)CCCCCCCCCCCCCCC (mixture of isomers),ILS at 300 mg/kg/day,Mus musculus [13],-11%
same,ILS at 300 mg/kg/day,Mus musculus [14],-6%
same,Range of survival days,Mus musculus [15],7
same,Range of survival days,Mus musculus [16],7
same,median survival time,Mus musculus [17],8 days
same,median survival time,Mus musculus [18],7.5 days
